Laboratory results reported in patent US20210115018A1, “PIPERIDINE COMPOUNDS AS COVALENT MENIN INHIBITORS” (THE REGENTS OF THE UNIVERSITY OF MICHIGAN, priority 2018, published 2021).

Tests used:
[1] = biological target: T1, menin protein (Homo sapiens, UniProt O00255); assay: Fluorescence polarization (FP) competitive binding assay, menin binding affinity; details: FP competition with FAM-MM2 probe 2 nM, menin 4 nM, 30 minutes room temperature
T1 sequence (O00255 1-610): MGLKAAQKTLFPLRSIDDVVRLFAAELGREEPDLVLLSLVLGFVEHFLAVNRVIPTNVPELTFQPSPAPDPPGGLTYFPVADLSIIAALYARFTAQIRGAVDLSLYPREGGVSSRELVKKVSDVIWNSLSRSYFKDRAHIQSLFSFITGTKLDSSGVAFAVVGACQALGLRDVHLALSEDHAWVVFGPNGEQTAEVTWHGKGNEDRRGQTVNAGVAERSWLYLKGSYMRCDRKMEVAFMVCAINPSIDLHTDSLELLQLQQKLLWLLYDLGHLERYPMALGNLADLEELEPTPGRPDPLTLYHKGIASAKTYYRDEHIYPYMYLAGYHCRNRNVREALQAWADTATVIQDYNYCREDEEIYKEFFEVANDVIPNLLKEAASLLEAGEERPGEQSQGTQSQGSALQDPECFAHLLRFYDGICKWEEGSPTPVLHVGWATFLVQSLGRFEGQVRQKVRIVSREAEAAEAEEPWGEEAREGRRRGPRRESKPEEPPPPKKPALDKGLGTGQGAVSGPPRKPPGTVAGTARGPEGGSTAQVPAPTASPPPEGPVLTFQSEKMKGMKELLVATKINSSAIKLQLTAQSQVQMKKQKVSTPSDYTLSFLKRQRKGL
Experimental: A fluorescence polarization (FP) competitive binding assay was used to determine the binding affinities of representative menin inhibitors. A FAM labeled fluorescent probe was designed and synthesized based on a MLL1 peptide (FAM-MM2). Equilibrium dissociation constant (Kd) value of FAM-MM2 to menin protein was determined from protein saturation experiments by monitoring the total fluorescence polarization of mixtures composed with the fluorescent probe at a fixed concentration and the protein with increasing concentrations up to full saturation. Serial dilutions of the protein were mixed with FAM-MM2 to a final volume of 200 μl in the assay buffer (PBS with 0.02% Bovine γ-Globulin and 4% DMSO. 0.01% Triton X-100 was added right before assays). Final FAM-MM2 concentration was 2 nM. Plates were incubated at room temperature for 30 minutes with gentle shaking to assure equilibrium. FP values in millipolarization units (mP) were measured using the Infinite M-1000 plate reader (Tecan U.S., Research Triangle Park, N.C.) in Microfluor 1 96-well, black, v-bottom plates (Thermo Scientific, Waltham, Mass.) at an excitation wavelength of 485 nm and an emission wavelength of 530 nm.
The IC50 of representative Compounds of the Disclosure, see Table 3, were determined in a competitive binding experiment. Mixtures of 5 μl of the tested compounds in DMSO and 195 μl of preincubated protein/probe complex solution in the assay buffer were added into assay plates which were incubated at room temperature for 30 minutes with gentle shaking. Final concentration of the menin protein was 4 nM, and final probe concentration is 2 nM. Negative controls containing protein/probe complex only (equivalent to 0% inhibition), and positive controls containing only free probes (equivalent to 100% inhibition), were included in each assay plate. FP values were measured as described above. IC50 values were determined by nonlinear regression fitting of the competition curves.

[2] = tested on: MV4-11; assay: 7-day proliferation assay (WST-8), cell growth inhibition; type: cell-based; details: Homo sapiens, MV4-11, 168 h, MV4-11 cells, 7 days
Experimental: The effect of representative Compounds of the Disclosure on cell viability was determined in a 7-day proliferation assay. Cells were maintained in the appropriate culture medium with 10% FBS at 37° C. and an atmosphere of 5% CO2.
Cells were seeded in 96-well flat bottom (Corning COSTAR, Corning, NY, cat#3595) at a density of 2,000-3,000 cells/well in 100 μl of culture medium. Compounds were serially diluted in the appropriate medium, and […] the diluted compounds were added to the appropriate wells of the cell plate. After the addition of compounds, the cells were incubated at 37° C. in an atmosphere of 5% CO2 for 7 days. Cell viability was determined using the WST (2-(2-methoxy-4-nitrophenyl)-3-(4-nitrophenyl)-5-(2,4-disulfophenyl)-2H-tetrazolium, monosodium salt) Cell Counting-8 Kit (Dojindo Molecular Technologies, Inc., Rockville, Md.) according to the manufacturers' instructions.
WST-8 reagent was added to each well at a final concentration of 10% (v/v), and then the plates were incubated at 37° C. for 1-2 hours for color development. The absorbance was measured at 450 nm using a SPECTRAmax PLUS plate reader (Molecular Devices, Sunnyvale, Calif.). The readings were normalized to the DMSO-treated cells and the half maximal inhibitory concentration (IC50) was calculated by nonlinear regression (four parameters sigmoid fitted with variable slope, least squares fit, and no constraint) analysis using the GraphPad Prism 5 software (GraphPad Software, La Jolla, Calif.).

Row | Compound | IC50 [1] | IC50 [2]
1 | C=CC(=O)N1CC(S(=O)(=O)c2ccc(N3CC(CN4CCC([C@@](CN(C)C)(c5cccc(F)c5)[C@H]5CCC[C@@H]5NC(=O)OC)CC4)C3)cc2)C1 [Cpd. No. 1, methyl ((1S,2R)-2-((S)-1-(1-((1-(4-((1-acryloylazetidin-3-yl)sulfonyl)phenyl)azetidin-3-yl)methyl)piperidin-4-yl)-2-(dimethylamino)-1-(3-fluorophenyl)ethyl)cyclopentyl)carbamate] | 2 nM | –
2 | COC(=O)N[C@H]1CCC[C@@H]1[C@](CN1CCCCC1)(c1cccc(F)c1)C1CCN(CC2CN(c3ccc(S(=O)(=O)C4CN(C(=O)/C=C/CN(C)C)C4)cc3)C2)CC1 [Cpd. No. 4, methyl ((1S,2R)-2-((S)-1-(1-((1-(4-((1-((E)-4-(dimethylamino)but-2-enoyl)azetidin-3-yl)sulfonyl)phenyl)azetidin-3-yl)methyl)piperidin-4-yl)-1-(3-fluorophenyl)-2-(piperidin-1-yl)ethyl)cyclopentyl)carbamate] | 2 nM | –
3 | COC(=O)N[C@H]1CCC[C@@H]1[C@](CN1CCOCC1)(c1cccc(F)c1)C1CCN(CC2CN(c3ccc(S(=O)(=O)C4CN(C(=O)/C=C/CN(C)C)C4)cc3)C2)CC1 [Cpd. No. 6, methyl ((1S,2R)-2-((S)-1-(1-((1-(4-((1-((E)-4-(dimethylamino)but-2-enoyl)azetidin-3-yl)sulfonyl)phenyl)azetidin-3-yl)methyl)piperidin-4-yl)-1-(3-fluorophenyl)-2-morpholinoethyl)cyclopentyl)carbamate] | 2 nM | –
4 | COC(=O)N[C@H]1CCC[C@@H]1[C@](CN1CCC(C)(O)CC1)(c1cccc(F)c1)C1CCN(CC2CN(c3ccc(S(=O)(=O)C4CN(C(=O)/C=C/CN(C)C)C4)cc3)C2)CC1 [Cpd. No. 8, methyl ((1S,2R)-2-((S)-1-(1-((1-(4-((1-((E)-4-(dimethylamino)but-2-enoyl)azetidin-3-yl)sulfonyl)phenyl)azetidin-3-yl)methyl)piperidin-4-yl)-1-(3-fluorophenyl)-2-(4-hydroxy-4-methylpiperidin-1-yl)ethyl)cyclopentyl)carbamate] | 2 nM | –
5 | C=C(CN(C)C)C(=O)N1CC(S(=O)(=O)c2ccc(N3CC(CN4CCC([C@@](CN5CCC5)(c5cccc(F)c5)[C@H]5CCC[C@@H]5NC(=O)OC)CC4)C3)cc2)C1 [Cpd. No. 10, methyl ((1S,2R)-2-((S)-2-(azetidin-1-yl)-1-(1-((1-(4-((1-(2-((dimethylamino)methyl)acryloyl)azetidin-3-yl)sulfonyl)phenyl)azetidin-3-yl)methyl)piperidin-4-yl)-1-(3-fluorophenyl)ethyl)cyclopentyl)carbamate] | 3 nM | –
6 | COC(=O)N[C@H]1CCC[C@@H]1[C@](CN1CCC1)(c1cc(F)cc(F)c1)C1CCN(CC2(F)CN(c3ccc(S(=O)(=O)C4CN(C(=O)/C=C/CN(C)C)C4)cc3)C2)CC1 [Cpd. No. 11, methyl ((1S,2R)-2-((S)-2-(azetidin-1-yl)-1-(3,5-difluorophenyl)-1-(1-((1-(4-((1-((E)-4-(dimethylamino)but-2-enoyl)azetidin-3-yl)sulfonyl)phenyl)-3-fluoroazetidin-3-yl)methyl)piperidin-4-yl)ethyl)cyclopentyl)carbamate] | 2 nM | –
7 | C=CC(=O)N1CC(S(=O)(=O)c2ccc(N3CC(CN4CCC([C@@](CN5CCC5)(c5cccc(F)c5)[C@H]5CCC[C@@H]5NC(=O)OC)CC4)C3)cc2)C1 [Cpd. No. 14, methyl ((1S,2R)-2-((S)-1-(1-((1-(4-((1-acryloylazetidin-3-yl)sulfonyl)phenyl)azetidin-3-yl)methyl)piperidin-4-yl)-2-(azetidin-1-yl)-1-(3-fluorophenyl)ethyl)cyclopentyl)carbamate] | 2 nM | –
8 | C#CC(=O)N1CC(S(=O)(=O)c2ccc(N3CC(CN4CCC([C@@](CN5CCC5)(c5cccc(F)c5)[C@H]5CCC[C@@H]5NC(=O)OC)CC4)C3)cc2)C1 [Cpd. No. 15, methyl ((1S,2R)-2-((S)-2-(azetidin-1-yl)-1-(3-fluorophenyl)-1-(1-((1-(4-((1-propioloylazetidin-3-yl)sulfonyl)phenyl)azetidin-3-yl)methyl)piperidin-4-yl)ethyl)cyclopentyl)carbamate] | 3 nM | –
9 | C=CC(=O)N1CC(S(=O)(=O)c2ccc(N3CC(F)(CN4CCC([C@@](CN5CCC5)(c5cccc(F)c5)[C@H]5CCC[C@@H]5NC(=O)OC)CC4)C3)cc2)C1 [Cpd. No. 16, methyl ((1S,2R)-2-((S)-1-(1-((1-(4-((1-acryloylazetidin-3-yl)sulfonyl)phenyl)-3-fluoroazetidin-3-yl)methyl)piperidin-4-yl)-2-(azetidin-1-yl)-1-(3-fluorophenyl)ethyl)cyclopentyl)carbamate] | 3 nM | –
10 | C=C(CN1CCC(O)CC1)C(=O)N1CC(S(=O)(=O)c2ccc(N3CC(CN4CCC([C@@](CN5CCC5)(c5cccc(F)c5)[C@H]5CCC[C@@H]5NC(=O)OC)CC4)C3)cc2)C1 [Cpd. No. 23, methyl ((1S,2R)-2-((S)-2-(azetidin-1-yl)-1-(3-fluorophenyl)-1-(1-((1-(4-((1-(2-((4-hydroxypiperidin-1-yl)methyl)acryloyl)azetidin-3-yl)sulfonyl)phenyl)azetidin-3-yl)methyl)piperidin-4-yl)ethyl)cyclopentyl)carbamate] | 2 nM | –
11 | C=CC(=O)N1CCC[C@@H](S(=O)(=O)c2ccc(N3CC(CN4CCC([C@@](C#N)(c5cccc(F)c5)[C@H]5CCC[C@@H]5NC(=O)OC)CC4)C3)cc2)C1 [compound 201] | – | < 500 nM
12 | CC#CC(=O)N1CC[C@@H](S(=O)(=O)c2ccc(N3CC(O)(CN4CCC([C@@](CN5CCC5)(c5cccc(F)c5)[C@H]5CCC[C@@H]5NC(=O)OC)CC4)C3)c(F)c2)C1 [compound 202] | – | < 10 nM
13 | CC#CC(=O)N1CC(S(=O)(=O)c2ccc(N3CC(O)(CN4CCC([C@@](CN5CCC5)(c5cccc(F)c5)[C@H]5CCC[C@@H]5NC(=O)OC)CC4)C3)cc2)C1 [compound 203] | – | < 10 nM
14 | COC(=O)N[C@H]1CCC[C@@H]1[C@](CN1CCC1)(c1cccc(F)c1)C1CCN(CC2CN(c3ccc(S(=O)(=O)[C@@H]4CCCN(C(=O)/C=C/CN5CCCCC5)C4)cc3)C2)CC1 [compound 204] | – | < 50 nM
15 | CC#CC(=O)N1CC(S(=O)(=O)c2ccc(N3CC(O)(CN4CCC([C@@](CNC(C)=O)(c5cccc(F)c5)[C@H]5CCC[C@@H]5NC(=O)OC)CC4)C3)cc2)C1 [compound 207] | – | < 100 nM
16 | C=CC(=O)N1CC[C@@H](S(=O)(=O)c2ccc(N3CC(CN4CCC([C@@](CN5CCC5)(c5cccc(F)c5)[C@H]5CCC[C@@H]5NC(=O)OC)CC4)C3)cc2CN2CC(F)C2)C1 [compound 209] | – | < 50 nM
17 | CC#CC(=O)N1CC[C@@H](S(=O)(=O)c2ccc(N3CC(CN4CCC([C@@](CN5CCC5)(c5cccc(F)c5)[C@H]5CCC[C@@H]5NC(=O)OC)CC4)C3)cc2CN2CC(F)C2)C1 [compound 210] | – | < 50 nM
18 | C=CC(=O)N1CCC[C@@H](S(=O)(=O)c2ccc(N3CC(C)(CN4CCC([C@@](CN5CCC5)(c5cccc(F)c5)[C@H]5CCC[C@@H]5NC(=O)OC)CC4)C3)cc2)C1 [compound 211] | – | < 50 nM
